The values that follow come from patent publication US10344001B2, “Azolylacryloyl derivatives as therapeutic agents for sickle cell disease” (VIRGINIA COMMONWEALTH UNIVERSITY, priority 2015, dated 2019).

One data set deals with T1, Hb in normal whole blood (Homo sapiens, UniProt P68871+P69905).
T1 construct: Normal whole blood was collected from adult donors at the Virginia Commonwealth University; endogenous in cells; host or cells: erythrocytes in normal adult human whole blood (hematocrit 20%)
Kind of data set: Oxygen equilibrium curve (OEC) study in normal whole blood, multipoint tonometry. The conditions noted are these: hematocrit 20%, 1.5 h at 37° C. The data set is classed as cell-based. The text has this:
(§1) De-identified, leftover EDTA venous blood samples from patients with SCD who visited The Children's Hospital of Philadelphia for routine clinic visits, were obtained after informed consent and used for antisickling study. Normal whole blood was collected from adult donors at the Virginia Commonwealth University after informed consent and used for oxygen equilibrium curve study. Hb was purified from discarded normal blood samples following published procedure and used for OEC study^34. The use of these human samples is in accordance with regulations of the IRB for Protection of Human Subjects.
The ability of the KAUS compounds to left-shift the OEC (stabilize the R-state and/or destabilize the T-state) and increase the oxygen affinity of Hb in normal whole blood or free human hemoglobin was determined by multipoint tonometry as previously reported^20. First, cell free normal human hemoglobin (1 mM) or normal whole blood (hematocrit of 20%) was incubated with 1 mM or 2 mM final test compound (KAUS-28, KAUS-29, KAUS-33, KAUS-38 or KAUS-39) for 1.5 h at 37° C. Following incubation, the mixture was equilibrated in a tonometer with oxygen tensions of 6, 20 and 60 mmHg for 10 min each, and pO2 (mmHg) and sO2 (%) values were measured thereafter using ABL 700 series automated blood gas analyzer (Radiometer America, Inc., Westlake, Ohio). The measured values of pO2 and sO2 at each oxygen tension level were then subjected to a non-linear regression analysis using the program Scientist (Micromath, Salt Lake City, Utah) to calculate P50 and the Hill coefficient (N) values. Time-dependent OEC studies (1 hr, 4 hr, 8 hr and 12 hr) were also performed for KAUS-28, KAUS-33, KAUS-38, and KAUS-39 at final compound concentration of 2 mM. ECA and the previously studied azolylacryloyl-carboxylate derivative, KAUS-15 were used as positive controls. Compounds were dissolved in DMSO to make 100-250 mM stock solutions, and DMSO was used in all control samples. All OEC studies were performed in duplicates.

Data set [1] concerns SS cells (sickle red blood cells). Kind of data set: RBC morphological antisickling study under hypoxic condition. In kind it is cell-based, human. The conditions noted are these: 2 mM compound, 1 hr under air, then 4% oxygen/96% nitrogen at 37° C. for 5 hrs; for inhibition at 2000 µM: Homo sapiens, Erythrocyte, read-out: Reduction (inhibition) of RBC sickling.
Source text: as §1
KAUS-38 and KAUS-39 at 2 mM concentrations were tested for their abilities to prevent RBC sickling under hypoxic condition following previously reported assay^20. Briefly SS cells were suspended in Hemox buffer (TCS Scientific Corp, Southampton, Pa.), pH 7.4, that contained 10 mM glucose and 0.2% bovine serum albumin. The solution was incubated under air in the absence (control) or presence of […] 2 mM concentration of test compound at 37° C. for 1 hr. Following, the suspension was incubated under hypoxic condition (4% oxygen/96% nitrogen) at 37° C. for 5 hrs. The suspension was fixed with 2% glutaraldehyde solution without exposure to air and then subjected to microscopic morphological analysis as previously reported […]

The nature of data set [2]: Reactivity toward free L-cysteine (UPLC-MS of compound and adduct). The conditions noted are these: incubated with L-Cys for 3 hours; for Ratio of Cpd/Adduct (Adduct peak): share of L-cysteine adduct peak; for Ratio of Cpd/Adduct (Compound peak): share of unreacted compound peak; for Reactivity with L-Cys (adduct share): values in text. The source says:
The above synthesized KAUS compounds were expected to covalently bind to Hb through a Michael addition reaction with the βCys93 at the surface of the protein to effect their allosteric and antisickling activities. We therefore investigated L-Cys conjugates with KAUS-28, KAUS-29, KAUS-33, KAUS-38 and KAUS-39 with ECA as a positive control using UPLC-MS analysis as previously described^20 with an Acquity H-Class UPLC which is connected to a PDA detector and an Acquity TQD detector. The column used was an Acquity UPLC BEH C18 1.7 μm, 2.1×50 mm, with a Vanguard pre-column attached. Solvent A consisted of water with 0.02% formic acid, while solvent B consisted of 90:10 acetonitrile:water with 0.02% formic acid. A gradient run was performed such that solvent B was increased from 0% B to 100% B from time 0-5 mins, followed by 3 minute wash at 100% B and then a return and re-equilibration at 100% A in the next 4 mins. The flow rate was maintained at 0.5 ml/min throughout the run. 2 μL of sample was injected per run. […] The eluent was then introduced into the TQD detector. The TQD detector was set at positive ionization mode with a capillary voltage of 3.20 kV, cone voltage of 20 V, extractor voltage of 1 V, and RF lens voltage of 0.1 V. The source temperature was set at 150° C., while the desolvation temperature was set at 350° C. and the desolvation and cone gas flows were set at 650 and 50 L/hr respectively. Scans were made from 100-700 m/z with scan duration of 0.5 seconds to obtain mass spectra at different time points.

The target in data set [3] is T2, cell free normal human hemoglobin (Homo sapiens, UniProt P68871+P69905).
T2 construct: Hb was purified from discarded normal blood samples following published procedure and used for OEC study; from tissue; host or cells: discarded normal human blood samples
Nature of the data set: Oxygen equilibrium curve (OEC) study with cell free hemoglobin, multipoint tonometry. In kind it is biochemical. The conditions noted are these: cell free normal human hemoglobin 1 mM; 1 mM or 2 mM compound.
Source text: as §1
The ability of the KAUS compounds to left-shift the OEC (stabilize the R-state and/or destabilize the T-state) and increase the oxygen affinity of Hb in normal whole blood or free human hemoglobin was determined by multipoint tonometry as previously reported^20. […] Following incubation, the mixture was equilibrated in a tonometer with oxygen tensions of 6, 20 and 60 mmHg for 10 min each, and pO2 (mmHg) and sO2 (%) values were measured thereafter using ABL 700 series automated blood gas analyzer (Radiometer America, Inc., Westlake, Ohio). The measured values of pO2 and sO2 at each oxygen tension level were then subjected to a non-linear regression analysis using the program Scientist (Micromath, Salt Lake City, Utah) to calculate P50 and the Hill coefficient (N) values. […]

Bounds are passed on as bounds.

T1 sequence (P69905 2-142 limits assumed): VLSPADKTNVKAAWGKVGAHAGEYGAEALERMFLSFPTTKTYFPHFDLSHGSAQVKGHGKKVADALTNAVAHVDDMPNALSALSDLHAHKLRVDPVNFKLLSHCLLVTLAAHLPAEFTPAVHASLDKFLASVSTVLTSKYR
T1 sequence (P68871 2-147 limits assumed): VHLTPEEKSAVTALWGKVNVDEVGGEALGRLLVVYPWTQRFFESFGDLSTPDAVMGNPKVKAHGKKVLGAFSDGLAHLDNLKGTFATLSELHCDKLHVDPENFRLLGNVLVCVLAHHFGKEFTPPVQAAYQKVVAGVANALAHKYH
T2 sequence (P69905 2-142 limits assumed): as the sequence (P69905 2-142 limits assumed) above
T2 sequence (P68871 2-147 limits assumed): as the sequence (P68871 2-147 limits assumed) above

On to `C=C(CC)C(=O)c1ccc(OCC(=O)O)c(Cl)c1Cl` [Ethacrynic Acid, ethacrynic acid, reference compound], for which the “OEC effect (increase of Hb affinity for oxygen, left shift)” value at Hb in normal whole blood (1 mM compound) stood at 6.1%. The “OEC effect (increase of Hb affinity for oxygen, left shift)” value on Hb in normal whole blood (2 mM compound) came to 21.3%. For the same compound, the inhibition – broadly, the relative decrease from the control value, in per cent – at 2000 µM in data set [1] turned out to be 18%. In data set [2], the “Ratio of Cpd/Adduct (Adduct peak)” value was found to be 96.3 and the “Ratio of Cpd/Adduct (Compound peak)” value is reported as 3.7.

In the case of `O=C(O)CCCOc1ccc(C(=O)/C=C/c2ncc[nH]2)cc1Cl` [KAUS-15, reference compound], the “Effect on Hb affinity for oxygen in cell free Hb (in words)” value in data set [3] was “significantly more potent effect with cell free Hb than with whole blood”. Moreover, the results for the “OEC effect (increase of Hb affinity for oxygen, left shift)” value on Hb in normal whole blood (1 mM compound) and at Hb in normal whole blood (2 mM compound) were 1% and 7%, respectively. Also, in data set [1], the “Reduction (inhibition) of RBC sickling” value is 6%.

In the case of `O=C(/C=C/c1ncc[nH]1)c1ccccc1` [KAUS-28, (E)-3-(1H-imidazol-2-yl)-1-phenylprop-2-en-1-one], in data set [2], the “Ratio of Cpd/Adduct (Adduct peak)” value is reported as 6.9 and the “Ratio of Cpd/Adduct (Compound peak)” value is reported as 93.1.

Turning to `COc1cccc(C(=O)/C=C/c2ncc[nH]2)c1` [KAUS-29, (E)-3-(1H-imidazol-2-yl)-1-(3-methoxyphenyl)prop-2-en-1-one], the entries for the “OEC effect (increase of Hb affinity for oxygen, left shift)” value on Hb in normal whole blood (1 mM compound) and on Hb in normal whole blood (2 mM compound) were 8% and 14%, respectively. Further, in data set [2], the “Ratio of Cpd/Adduct (Adduct peak)” value came out at 2.1. The “Ratio of Cpd/Adduct (Compound peak)” value in data set [2] came to 97.9.

For `O=C(/C=C/c1ncc[nH]1)c1ccc(O)cc1` [KAUS-32, (E)-1-(4-hydroxyphenyl)-3-(1H-imidazol-2-yl)prop-2-en-1-one], the melting point (usually the temperature of the solid-liquid transition) is 250 to 253 °C.

For the compound `O=C(/C=C/c1ncc[nH]1)c1ccc(OC2CCCCO2)cc1` (stereo not shown) [KAUS-33, (E)-3-(1H-imidazol-2-yl)-1-(4-((tetrahydro-2H-pyran-2-yl)oxy)phenyl)prop-2-en-1-one], at Hb in normal whole blood (1 mM compound), the “OEC effect (increase of Hb affinity for oxygen, left shift)” value was found to be 9.9%. For the same compound, the “OEC effect (increase of Hb affinity for oxygen, left shift)” value on Hb in normal whole blood (2 mM compound) came to 16.5%. Further, in data set [2], the “Ratio of Cpd/Adduct (Adduct peak)” value is 24.8, the “Ratio of Cpd/Adduct (Compound peak)” value turned out to be 75.2 and the “Reactivity with L-Cys (adduct share)” value is 24.8%.

For the compound `O=C(/C=C/c1ncc[nH]1)c1ccc(OCc2ccccc2)cc1` [KAUS-34, (E)-1-(4-(benzyloxy)phenyl)-3-(1H-imidazol-2-yl)prop-2-en-1-one], the melting point is > 250 °C (dec.).

Consider `COc1cc(C(=O)/C=C/c2ncc[nH]2)ccc1O` [KAUS-36, (E)-1-(4-hydroxy-3-methoxyphenyl)-3-(1H-imidazol-2-yl)prop-2-en-1-one], for which the melting point was > 250 °C (dec.).

`COc1ccc(C(=O)/C=C/c2ncc[nH]2)cc1` [KAUS-38, (E)-3-(1H-imidazol-2-yl)-1-(4-methoxyphenyl)prop-2-en-1-one]: at Hb in normal whole blood (1 mM compound), the “OEC effect (increase of Hb affinity for oxygen, left shift)” value was found to be 8%. The “OEC effect (increase of Hb affinity for oxygen, left shift)” value on Hb in normal whole blood (2 mM compound) was determined as 14%. Further, in data set [1], the inhibition at 2000 µM was 18%. Further, in data set [2], the “Ratio of Cpd/Adduct (Adduct peak)” value amounted to 37.8, the “Ratio of Cpd/Adduct (Compound peak)” value worked out at 62.2 and the “Reactivity with L-Cys (adduct share)” value is given as 37.8%.

`COc1ccc(C(=O)/C=C/c2ncc[nH]2)cc1OC` [KAUS-39, (E)-1-(3,4-dimethoxyphenyl)-3-(1H-imidazol-2-yl)prop-2-en-1-one] showed a melting point of 222 to 223 °C. Besides, the inhibition at 2000 µM in data set [1] was 5%. Moreover, in data set [2], the “Ratio of Cpd/Adduct (Adduct peak)” value was found to be 27.2, the “Ratio of Cpd/Adduct (Compound peak)” value was 72.8 and the “Reactivity with L-Cys (adduct share)” value is 27.2%.
